Experimental data reported in patent US20250122191A1, “COMPOUNDS AS BCL-2 INHIBITORS” (Fochon Biosciences, Ltd, priority 2021, published 2025).

Experiments:
Assay type in all cases: cell-based
RS4;11-BCL-2 G101V cells = test: Cell proliferation assay (MTS), RS4;11-BCL-2 G101V engineered cells; conditions: Homo sapiens, 120 h, read-out: RS4, 11 BCL2-G101V IC50
Outline: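 Proliferation IC50 in RS4;11 lines engineered with BCL-2 mutations, measured by MTS at 490 nm after 72 h (D103E, D103Y) or 120 h (G101V, F104L) compound treatment at 37 °C.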

RS4;11-BCL-2 D103E cells = test: Cell proliferation assay (MTS), RS4;11-BCL-2 D103E engineered cells; conditions: Homo sapiens, 72 h, read-out: RS4, 11 BCL2-D103E IC50
Source text: MTS testing kit was purchased from Promega (Madison, WI, USA). The RPMI-1640, Fetal bovine serum and Penicillin-Streptomycin were purchased from BI (Biological Industries, Beit Haemek, Israel). Puromycin was purchased from Beyotime (shanghai, China). Dimethyl sulfoxide (DMSO) was purchased from Sigma (St. Louis., MO, USA). RS4;11-BCL-2 G101V (Cobioer Lot. #: CBD2021063013P4), RS4;11-BCL-2 D103E (Cobioer Lot. #: CBD2021063013P4), RS4;11-BCL-2 D103Y (Cobioer Lot. #: CBD2022012101P4) and RS4;11-BCL-2 F104L (Cobioer Lot. #: CBD2021063014P4) cells were cultured in RPMI1640 supplemented with 1 ug/mL puromycin, 100 U/mL Penicillin-Streptomycin and 10% FBS.
To investigate whether a compound is able to inhibit the activity of BCL-2 mutation in cells, a mechanism-based assay using engineered cell lines stably overexpressing BCL-2 mutation (RS4;11-BCL-2 G101V, RS4;11-BCL-2 D103E, RS4;11-BCL-2 D103Y, and RS4;11-BCL-2 F104L) was developed. In this assay, the inhibition of BCL-2 mutation was reflected by the inhibition of cell proliferation of engineered RS4;11 cells. Cells were plated into 96-well plates at optimized cell density (RS4;11-BCL-2 G101V: 5000 cells/well; RS4;11-BCL-2 D103E: 7500 cells/well; RS4;11-BCL-2 D103Y: 7500 cells/well; RS4;11-BCL-2 F104L: 5000 cells/well). Plates were incubated at 37° C., with 5% CO2 for 4 h (RS4;11-BCL-2 G101V, RS4;11-BCL-2 F104L) and 24 h (RS4;11-BCL-2 D103E, RS4;11-BCL-2 D103Y), respectively. Compounds were serially diluted and added to the plates with the final concentrations of 10000, 3333.3, 1111.1, 370.4, 123.5, 41.2, 13.7, 4.6 and 1.5 nM. Plates were incubated at 37° C., with 5% CO2 for 120 h (RS4; 11-BCL-2 G101V, RS4; 11-BCL-2 F104L) and 72 h (RS4;11-BCL-2 D103E, RS4;11-BCL-2 D103Y), respectively. 20 μl MTS was added into each well and the plates were incubated at 37° C., with 5% CO2 exactly for 2 h. The absorbance was measured by a microplate reader at 490 nm. IC50 values were calculated using GraphPad Prism 8.0 software.

Toledo cells = test: Cell proliferation assay (MTS), Toledo cells; conditions: Homo sapiens, 72 h
Outline: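 Toledo cells (RPMI-1640, 10% FBS) seeded at 30000 cells/well, rested 4 h, then exposed 72 h at 37 °C, 5% CO2 to compound at nine final concentrations, 1.5–10000 nM. Viability by MTS (2 h), absorbance at 490 nm. IC50 from the concentration-response.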

| SMILES | IC50 (RS4;11-BCL-2 G101V cells) [nM] | IC50 (RS4;11-BCL-2 D103E cells) [nM] | IC50 (Toledo cells) [nM] |
| --- | --- | --- | --- |
| COCCN1CCN(C2CC3(CCN(c4ccc(C(=O)NS(=O)(=O)c5cnc(NC[C@H]6CC[C@](C)(O)CC6)c([N+](=O)[O-])c5)c(Oc5cc6c(F)c[nH]c6nc5OC)c4)CC3)C2)[C@H](c2ccccc2C(C)C)C1 [Example 129, 2-((3-fluoro-6-methoxy-1H-pyrrolo[2,3-b]pyridin-5-yl)oxy)-N-((6-((((1r,4r)-4-hydroxy-4-methylcyclohexyl)methyl)amino)-5-nitropyridin-3-yl)sulfonyl)-4-(2-((R)-2-(2-isopropylphenyl)-4-(2-methoxyethyl)piperazin-1-yl)-7-azaspiro[3.5]nonan-7-yl)benzamide] |  | 3 | 1 |
| CCOc1nc2[nH]cc(F)c2cc1Oc1cc(N2CCC3(CC2)CC(N2CCN(Cc4cnc(C5CC5)c(OC)c4)C[C@H]2c2ccccc2C(C)C)C3)ccc1C(=O)NS(=O)(=O)c1cnc(NC[C@H]2CC[C@](C)(O)CC2)c([N+](=O)[O-])c1 [Example 253, 4-(2-((R)-4-((6-cyclopropyl-5-methoxypyridin-3-yl)methyl)-2-(2-isopropylphenyl)piperazin-1-yl)-7-azaspiro[3.5]nonan-7-yl)-2-((6-ethoxy-3-fluoro-1H-pyrrolo[2,3-b]pyridin-5-yl)oxy)-N-((6-((((1r,4r)-4-hydroxy-4-methylcyclohexyl)methyl)amino)-5-nitropyridin-3-yl)sulfonyl)benzamide] | 1 | 3 |  |
| COc1cc(CN2CCN(C3CC4(CCN(c5ccc(C(=O)NS(=O)(=O)c6cnc(NC[C@H]7CC[C@](C)(O)CC7)c([N+](=O)[O-])c6)c(Oc6cc7c(F)c[nH]c7nc6OC)c5)CC4)C3)[C@H](c3ccccc3C(C)C)C2)cnc1OC [Example 123, 4-(2-((R)-4-((5,6-dimethoxypyridin-3-yl)methyl)-2-(2-isopropylphenyl)piperazin-1-yl)-7-azaspiro[3.5]nonan-7-yl)-2-((3-fluoro-6-methoxy-1H-pyrrolo[2,3-b]pyridin-5-yl)oxy)-N-((6-((((1r,4r)-4-hydroxy-4-methylcyclohexyl)methyl)amino)-5-nitropyridin-3-yl)sulfonyl)benzamide] | 1 | 1 |  |
| CC(C)c1ccccc1[C@@H]1CN(C[C@H]2COCCO2)CCN1C1CC2(CCN(c3ccc(C(=O)NS(=O)(=O)c4cnc(NC[C@H]5CC[C@](C)(O)CC5)c([N+](=O)[O-])c4)c(Oc4cnc5[nH]cc(F)c5c4)c3)CC2)C1 [Example 330, 4-(2-((R)-4-(((S)-1,4-dioxan-2-yl)methyl)-2-(2-isopropylphenyl)piperazin-1-yl)-7-azaspiro [3.5]nonan-7-yl)-2-((3-fluoro-1H-pyrrolo[2,3-b]pyridin-5-yl)oxy)-N-((6-((((1r,4r)-4-hydroxy-4-methylcyclohexyl)methyl)amino)-5-nitropyridin-3-yl)sulfonyl)benzamide] | 1 | 1 |  |

More lines, main results first:

| IC50 (RS4;11-BCL-2 G101V cells) [nM] | IC50 (RS4;11-BCL-2 D103E cells) [nM] | SMILES | IC50 (Toledo cells) [nM] |
| --- | --- | --- | --- |
| 1 | 1 | COc1nc2[nH]cc(F)c2cc1Oc1cc(N2CCC3(CC2)CC(N2CCN(C[C@H]4COCCO4)C[C@H]2c2ccccc2C(C)C)C3)ccc1C(=O)NS(=O)(=O)c1cnc(NC[C@H]2CC[C@](C)(O)CC2)c([N+](=O)[O-])c1 [Example 328, 4-(2-((R)-4-(((S)-1,4-dioxan-2-yl)methyl)-2-(2-isopropylphenyl)piperazin-1-yl)-7-azaspiro[3.5]nonan-7-yl)-2-((3-fluoro-6-methoxy-1H-pyrrolo[2,3-b]pyridin-5-yl)oxy)-N-((6-((((1r,4r)-4-hydroxy-4-methylcyclohexyl)methyl)amino)-5-nitropyridin-3-yl)sulfonyl)benzamide] |  |
| 1 | 1 | COc1nc2[nH]cc(F)c2cc1Oc1cc(N2CCC3(CC2)CC(N2CCN(C4CCC(OC)CC4)C[C@H]2c2ccccc2C(C)C)C3)ccc1C(=O)NS(=O)(=O)c1cnc(NC[C@H]2CC[C@](C)(O)CC2)c([N+](=O)[O-])c1 (stereo partly drawn) [Example 325, 2-((3-fluoro-6-methoxy-1H-pyrrolo[2,3-b]pyridin-5-yl)oxy)-N-((6-((((1r,4r)-4-hydroxy-4-methylcyclohexyl)methyl)amino)-5-nitropyridin-3-yl)sulfonyl)-4-(2-((R)-2-(2-isopropylphenyl)-4-(4-methoxycyclohexyl)piperazin-1-yl)-7-azaspiro[3.5]nonan-7-yl)benzamide] |  |
| 1 | 1 | CC(C)c1ccccc1[C@@H]1CN(C2CCOCC2)CCN1C1CC2(CCN(c3ccc(C(=O)NS(=O)(=O)c4cnc(NC[C@H]5CC[C@](C)(O)CC5)c([N+](=O)[O-])c4)c(Oc4cnc5[nH]cc(F)c5c4)c3)CC2)C1 [Example 320, 2-((3-fluoro-1H-pyrrolo[2,3-b]pyridin-5-yl)oxy)-N-((6-((((1r,4r)-4-hydroxy-4-methylcyclohexyl)methyl)amino)-5-nitropyridin-3-yl)sulfonyl)-4-(2-((R)-2-(2-isopropylphenyl)-4-(tetrahydro-2H-pyran-4-yl)piperazin-1-yl)-7-azaspiro[3.5]nonan-7-yl)benzamide] |  |
| 1 | 1 | CC(C)c1ccccc1[C@@H]1CN(C(C)C)CCN1C1CC2(CCN(c3ccc(C(=O)NS(=O)(=O)c4cnc(NC[C@H]5CC[C@](C)(O)CC5)c([N+](=O)[O-])c4)c(Oc4cnc5[nH]cc(F)c5c4)c3)CC2)C1 [Example 185, 2-((3-fluoro-1H-pyrrolo[2,3-b]pyridin-5-yl)oxy)-N-((6-((((1r,4r)-4-hydroxy-4-methylcyclohexyl)methyl)amino)-5-nitropyridin-3-yl)sulfonyl)-4-(2-((R)-4-isopropyl-2-(2-isopropylphenyl)piperazin-1-yl)-7-azaspiro[3.5]nonan-7-yl)benzamide] |  |
| 1 | 1 | CC(C)c1ccccc1[C@@H]1CN(CC2CCOCC2)CCN1C1CC2(CCN(c3ccc(C(=O)NS(=O)(=O)c4cnc(NC[C@H]5CC[C@](C)(O)CC5)c([N+](=O)[O-])c4)c(Oc4cnc5[nH]cc(F)c5c4)c3)CC2)C1 [Example 318, 2-((3-fluoro-1H-pyrrolo[2,3-b]pyridin-5-yl)oxy)-N-((6-((((1r,4r)-4-hydroxy-4-methylcyclohexyl)methyl)amino)-5-nitropyridin-3-yl)sulfonyl)-4-(2-((R)-2-(2-isopropylphenyl)-4-((tetrahydro-2H-pyran-4-yl)methyl)piperazin-1-yl)-7-azaspiro[3.5]nonan-7-yl)benzamide] |  |
| 1 | 1 | COc1cc(CN2CCN(C3CC4(CCN(c5ccc(C(=O)NS(=O)(=O)c6cnc(NC[C@H]7CC[C@](C)(O)CC7)c([N+](=O)[O-])c6)c(Oc6cnc7[nH]cc(F)c7c6)c5)CC4)C3)[C@H](c3ccccc3C(C)C)C2)cnc1OC [Example 259, 4-(2-((R)-4-((5,6-dimethoxypyridin-3-yl)methyl)-2-(2-isopropylphenyl)piperazin-1-yl)-7-azaspiro[3.5]nonan-7-yl)-2-((3-fluoro-1H-pyrrolo[2,3-b]pyridin-5-yl)oxy)-N-((6-((((1r,4r)-4-hydroxy-4-methylcyclohexyl)methyl)amino)-5-nitropyridin-3-yl)sulfonyl)benzamide] |  |
